Experimental data from publication PMC2222910 (The Journal of General Physiology, 1999).

Biological target: T1, P2X2 purinoceptor (Rattus norvegicus, UniProt P49653)
T1 sequence (P49653 1-472): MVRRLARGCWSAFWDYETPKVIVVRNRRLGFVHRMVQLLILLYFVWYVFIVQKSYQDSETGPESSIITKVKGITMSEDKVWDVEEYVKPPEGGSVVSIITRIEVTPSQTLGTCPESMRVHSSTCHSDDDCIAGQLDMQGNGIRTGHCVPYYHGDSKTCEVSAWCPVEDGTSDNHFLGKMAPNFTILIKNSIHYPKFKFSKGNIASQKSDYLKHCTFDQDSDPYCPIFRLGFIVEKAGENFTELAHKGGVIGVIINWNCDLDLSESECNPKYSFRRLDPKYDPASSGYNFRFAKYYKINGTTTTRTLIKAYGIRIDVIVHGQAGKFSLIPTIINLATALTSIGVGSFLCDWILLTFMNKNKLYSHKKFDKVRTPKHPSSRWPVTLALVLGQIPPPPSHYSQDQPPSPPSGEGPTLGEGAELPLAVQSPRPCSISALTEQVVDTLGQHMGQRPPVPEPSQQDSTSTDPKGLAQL
Assay: single channel patch clamp of outside-out patches, Xenopus oocytes
Format: cell-based

EC50: 11.2 µM
SMILES: Nc1ncnc2c1ncn2[C@@H]1O[C@H](COP(=O)(O)OP(=O)(O)OP(=O)(O)O)[C@@H](O)[C@H]1O [ATP]
